# Source: ChEMBL document CHEMBL5532646, “Discovery of 4-(N-dithiobenzyl piperazine)-1,8-naphthalimide as a potent multi-target antitumor agent with good efficacy, limited toxicity, and low resistance” (Eur J Med Chem, 2024)
# Activity calls are given as the source filed them. The rule behind the calls is not given here.
# Experiments:
# [1] = test system: T-24; assay: Induction of ferroptosis in human T24 cells assessed as smaller mitochondria at 5 uM incubated for 24 hrs by TEM analysis; type: functional, cell-based
# [2] = test system: T-24; assay: Inhibition of cell proliferation of human T24 cells at 1 to 5 uM incubated for 7 days by colony formation assay; type: functional, cell-based; conditions: dose 1-5 µM, time 7.0 day
# [3] = test system: T-24; assay: Induction of apoptosis in human T24 cells assessed as increase in Bad level at 2 to 8 uM incubated for 24 hrs by Western blot analysis; type: functional, cell-based; conditions: dose 2-8 µM
# [4] = test system: T-24; assay: Induction of autophagy in human T24 cells assessed as increase in LC-3 level at 2 to 8 uM incubated for 24 hrs by Western blot analysis; type: functional, cell-based; conditions: dose 2-8 µM
# [5] = test system: T-24; assay: Antitumor activity against human T24 cells assessed as effect on PI3K-AKT signaling pathway at 5 uM incubated for 24 hrs by TMT/iTRAQ analysis; type: functional, cell-based
# [6] = test system: T-24; assay: Induction of cell cycle arrest at G2/M phase in human T24 cells at 2 uM incubated for 24 hrs by flow cytometry (reference value: 12.30 %); type: functional
# [7] = test system: T-24; assay: Induction of ferroptosis in human T24 cells at 5 uM incubated for 24 hrs by KEGG analysis; type: functional, cell-based
# [8] = test system: T-24; assay: Induction of autophagy in human T24 cells assessed as appearance of autophagic vesicles at 5 uM incubated for 48 hrs by TEM analysis; type: functional, cell-based
# [9] = test system: T-24; assay: Induction of apoptosis in human T24 cells at 5 uM incubated for 24 hrs by KEGG analysis; type: functional, cell-based
# [10] = Toxicity in nude mouse model xenografted with human T24 cells assessed as pathological change in heart at 15 mg/kg, ip administered once every two days for 21 days; type: organism-based, T-24; conditions: in vivo, 504 h, time 21 day
# [11] = test system: T-24; assay: Induction of cell cycle arrest in human T24 cells assessed as decrease in MCM5 level at 2 to 5 uM by Western blot analysis; type: functional, cell-based; conditions: dose 2-5 µM
# [12] = test system: T-24; assay: Induction of cell cycle arrest at S phase in human T24 cells at 8 uM incubated for 24 hrs by flow cytometry (reference value: 12.39 %); type: functional
# [13] = test system: T-24; assay: Induction of apoptosis in human T24 cells assessed as increase in cleaved PARP level at 2 to 8 uM incubated for 24 hrs by Western blot analysis; type: functional, cell-based; conditions: dose 2-8 µM
# [14] = test system: T-24; assay: Induction of cell cycle arrest at G0/G1 phase in human T24 cells at 8 uM incubated for 24 hrs by flow cytometry (reference value: 75.31 %); type: functional
# [15] = test system: T-24; assay: Induction of ferroptosis in human T24 cells assessed as decrease in GPX4 level at 5 uM incubated for 24 hrs by Western blot analysis; type: functional, cell-based
# [16] = test system: T-24; assay: Induction of ferroptosis in human T24 cells assessed as reduction in mitochondrial cristae at 5 uM incubated for 24 hrs by TEM analysis; type: functional, cell-based
# [17] = test system: T-24; assay: Induction of cell cycle arrest in human T24 cells assessed as increase in p21 level at 2 to 8 uM by Western blot analysis; type: functional, cell-based; conditions: dose 2-8 µM
# [18] = test system: T-24; assay: Induction of ferroptosis in human T24 cells assessed as increase in FACL4 level at 5 uM incubated for 24 hrs by Western blot analysis; type: functional, cell-based
# [19] = test system: T-24; assay: Antitumor activity against human T24 cells assessed as effect on ferroptosis signaling pathway at 5 uM incubated for 24 hrs by TMT/iTRAQ analysis; type: functional, cell-based
# [20] = test system: T-24; assay: Induction of cell cycle arrest at G2/M phase in human T24 cells at 8 uM incubated for 24 hrs by flow cytometry (reference value: 12.30 %); type: functional
# [21] = test system: MGC-803; assay: Antiproliferative activity against human MGC-803 cells incubated for 48 hrs by MTT assay; type: functional, cell-based; conditions: MGC-803, 48 h
# [22] = test system: T-24; assay: Induction of ferroptosis in human T24 cells assessed as increase in mitochondrial membrane density at 5 uM incubated for 24 hrs by TEM analysis; type: functional, cell-based
# [23] = test system: T-24; assay: Induction of cell cycle arrest at G2/M phase in human T24 cells at 5 uM incubated for 24 hrs by flow cytometry (reference value: 12.30 %); type: functional
# [24] = test system: T-24; assay: Induction of apoptosis in human T24 cells assessed as increase in cleaved caspase-3 level at 2 to 8 uM incubated for 24 hrs by Western blot analysis; type: functional, cell-based; conditions: dose 2-8 µM
# [25] = test system: T-24; assay: Antitumor activity against human T24 cells assessed as effect on MAPK signaling pathway at 5 uM incubated for 24 hrs by TMT/iTRAQ analysis; type: functional, cell-based
# [26] = Toxicity in nude mouse model xenografted with human T24 cells assessed as pathological change in spleen at 15 mg/kg, ip administered once every two days for 21 days; type: organism-based, T-24; conditions: in vivo, 504 h, time 21 day
# [27] = test system: HK-2; assay: Antiproliferative activity against human HK-2 cells incubated for 48 hrs by MTT assay; type: functional, cell-based; conditions: HK-2, 48 h
# [28] = Toxicity in nude mouse model xenografted with human HepG2 cells assessed as pathological change in lung at 15 mg/kg, ip administered once every two days for 21 days; type: organism-based; conditions: in vivo, 504 h, time 21 day
# [29] = test system: T-24; assay: Induction of autophagy in human T24 cells assessed as decrease in P62 level at 2 to 8 uM incubated for 24 hrs by Western blot analysis; type: functional, cell-based; conditions: dose 2-8 µM
# [30] = test system: T-24; assay: Induction of ferroptosis in human T24 cells assessed as increase in iron level at 5 uM incubated for 24 hrs in presence of DFO by FerrOrange probe based confocal microscopy; type: functional, cell-based
# [31] = test system: T-24; assay: Antiproliferative activity against human T24 cells xenografted in nude mouse model assessed as tumor inhibition rate at 15 mg/kg, ip administered once every two days for 21 days relative to control; type: functional; conditions: T-24, 504 h, time 21 day
# [32] = test system: T-24; assay: Induction of ferroptosis in human T24 cells assessed as ruptured mitochondria at 5 uM incubated for 24 hrs by TEM analysis; type: functional, cell-based
# [33] = Toxicity in nude mouse model xenografted with human HepG2 cells assessed as pathological change in spleen at 15 mg/kg, ip administered once every two days for 21 days; type: organism-based; conditions: in vivo, 504 h, time 21 day
# [34] = test system: T-24; assay: Anti-migratory activity against human T24 cells at 1 to 10 uM incubated upto 48 hrs by wound healing assay; type: functional, cell-based; conditions: dose 1-10 µM
# [35] = test system: T-24; assay: Induction of autophagy in human T24 cells at 5 uM incubated for 24 hrs by KEGG analysis; type: functional, cell-based
# [36] = test system: T-24; assay: Induction of ferroptosis in human T24 cells assessed as increase in ROS level at 5 uM incubated for 24 hrs by DCFH-DA probe based analysis; type: functional, cell-based
# [37] = test system: T-24; assay: Induction of cell cycle arrest at G0/G1 phase in human T24 cells at 2 uM incubated for 24 hrs by flow cytometry (reference value: 75.31 %); type: functional
# [38] = test system: A549; assay: Antiproliferative activity against human A549 cells incubated for 48 hrs by MTT assay; type: functional, cell-based
# [39] = test system: T-24; assay: Induction of cell cycle arrest at S phase in human T24 cells at 2 uM incubated for 24 hrs by flow cytometry (reference value: 12.39 %); type: functional
# [40] = Toxicity in nude mouse model xenografted with human T24 cells assessed as pathological change in lung at 15 mg/kg, ip administered once every two days for 21 days; type: organism-based, T-24; conditions: in vivo, 504 h, time 21 day
# [41] = test system: T-24; assay: Anti-migratory activity against human T24 cells at 5 uM by wound healing assay; type: functional, cell-based; conditions: time <= 48.0 hrs, TDE = time-dependent effect
# [42] = test system: T-24; assay: Induction of cell cycle arrest at G0/G1 phase in human T24 cells at 5 uM incubated for 24 hrs by flow cytometry (reference value: 75.31 %); type: functional
smiles,measurement,setting,value
CN(C)CCN1C(=O)c2cccc3c(N4CCN(C(=S)SCc5ccccc5)CC4)ccc(c23)C1=O,Activity,[1],Active
same,inhibition,[2],Active
same,Activity,[3],Active
same,Activity,[4],Active
same,Activity,[5],Active
same,Activity,[6],20.7%
same,Activity,[7],Active
same,Activity,[8],Active
same,Activity,[9],Active
same,Activity,[10],Non-Toxic
same,Activity,[11],Active
same,Activity,[12],13.21%
same,Activity,[13],Active
same,Activity,[14],70.18%
same,Activity,[15],Active
same,Activity,[16],Active
same,Activity,[17],Active
same,Activity,[18],Active
same,Activity,[19],Active
same,Activity,[20],16.61%
same,IC50,[21],5.23 µM
same,Activity,[22],Active
same,Activity,[23],18.36%
same,Activity,[24],Active
same,Activity,[25],Active
same,Activity,[26],Non-Toxic
same,IC50,[27],14.9 µM
same,Activity,[28],Non-Toxic
same,Activity,[29],Active
same,Activity,[30],inactive
same,inhibition in vivo at 15 mg/kg,[31],56.3%
same,Activity,[32],Active
same,Activity,[33],Non-Toxic
same,Activity,[34],Active
same,Activity,[35],Active
same,Activity,[36],Active
same,Activity,[37],42.37%
same,Activity,[38],Active
same,Activity,[39],36.93%
same,Activity,[40],Non-Toxic
same,Activity,[41],Tde
same,Activity,[42],51.06%
